Results: US20080176225A1, “MEMBRANE BOUND REPORTER GENE SYSTEM” (priority 2007, published 2008)

Key:
[1] = target: T1, mβG-eB7 (Mus musculus, UniProt P12265, G265D/I320V); assay: In vivo imaging of FDGlcU in nude mice with HCC36 tumors injected with Ad5/mβG-eB7; conditions: 10^9 pfu intratumoral, FDGlcU i.v. two days later
T1 construct: expressed in transfected cells
T1 sequence (P12265 with tags, fused parts or gaps G265D/I320V): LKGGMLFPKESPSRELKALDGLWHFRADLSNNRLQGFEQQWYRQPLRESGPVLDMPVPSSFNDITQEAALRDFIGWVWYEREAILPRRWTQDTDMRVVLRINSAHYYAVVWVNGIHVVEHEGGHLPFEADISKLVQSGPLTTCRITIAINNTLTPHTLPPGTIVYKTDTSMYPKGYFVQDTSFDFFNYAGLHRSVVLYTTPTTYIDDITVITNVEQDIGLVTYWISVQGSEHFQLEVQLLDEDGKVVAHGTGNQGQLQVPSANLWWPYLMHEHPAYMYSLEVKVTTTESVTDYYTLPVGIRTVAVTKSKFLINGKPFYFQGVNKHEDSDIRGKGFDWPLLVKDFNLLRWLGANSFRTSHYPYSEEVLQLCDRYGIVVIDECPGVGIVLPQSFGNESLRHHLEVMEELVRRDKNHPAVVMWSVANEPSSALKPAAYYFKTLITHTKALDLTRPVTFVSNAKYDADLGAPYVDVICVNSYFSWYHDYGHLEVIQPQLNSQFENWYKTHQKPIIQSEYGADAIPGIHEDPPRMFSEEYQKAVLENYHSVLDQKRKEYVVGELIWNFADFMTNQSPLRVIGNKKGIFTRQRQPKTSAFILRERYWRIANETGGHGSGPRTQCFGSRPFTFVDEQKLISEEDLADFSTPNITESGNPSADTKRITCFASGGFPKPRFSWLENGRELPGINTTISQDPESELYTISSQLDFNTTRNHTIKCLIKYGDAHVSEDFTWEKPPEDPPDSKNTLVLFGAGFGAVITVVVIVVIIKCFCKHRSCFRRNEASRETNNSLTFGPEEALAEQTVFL
Protocol: To image Ad5/mβG-eB7, nude mice (n=3) bearing established HCC36 tumors (200-300 mm^3) in their left and right chest's regions were injected in the right HCC36 tumor with 10^9 pfu of Ad5/mβG-eB7 in 50 μl of phosphate-buffered saline (PBS). Two days later, the mice were i.v. injected with 500 μg of FDGlcU. Whole-body images were obtained in 3 min scans over 2 hour.
After the tumors grew, 10^9 pfu of Ad5/mβG-eB7 was directly injected into the HCC36 tumor on the right side of the mouse. Two days later, the mouse was i.v. injected with FDGlcU and whole-body optical imaging was performed.
Tumor cells were collected 30 minutes after FDGlcU injection were stained with X-GlcA and nuclear fast red and then viewed under phase contrast and fluorescence microscopes.

[2] = target: T2, hβG-eB7 (UniProt P08236+Q00609, L649P); assay: In vivo imaging of FDGlcU in nude mice bearing EJ and EJ/hβG-eB7 tumors; parameters: species or system human; conditions: 500 μg i.v.
T2 construct: expressed in transfected cells; host or cells: EJ human bladder carcinoma cells, retroviral transduction with pLNCX-hβG-eB7; tumours in nude mice
T2 sequence (P08236+Q00609 with tags, fused parts or gaps P08236:L649P): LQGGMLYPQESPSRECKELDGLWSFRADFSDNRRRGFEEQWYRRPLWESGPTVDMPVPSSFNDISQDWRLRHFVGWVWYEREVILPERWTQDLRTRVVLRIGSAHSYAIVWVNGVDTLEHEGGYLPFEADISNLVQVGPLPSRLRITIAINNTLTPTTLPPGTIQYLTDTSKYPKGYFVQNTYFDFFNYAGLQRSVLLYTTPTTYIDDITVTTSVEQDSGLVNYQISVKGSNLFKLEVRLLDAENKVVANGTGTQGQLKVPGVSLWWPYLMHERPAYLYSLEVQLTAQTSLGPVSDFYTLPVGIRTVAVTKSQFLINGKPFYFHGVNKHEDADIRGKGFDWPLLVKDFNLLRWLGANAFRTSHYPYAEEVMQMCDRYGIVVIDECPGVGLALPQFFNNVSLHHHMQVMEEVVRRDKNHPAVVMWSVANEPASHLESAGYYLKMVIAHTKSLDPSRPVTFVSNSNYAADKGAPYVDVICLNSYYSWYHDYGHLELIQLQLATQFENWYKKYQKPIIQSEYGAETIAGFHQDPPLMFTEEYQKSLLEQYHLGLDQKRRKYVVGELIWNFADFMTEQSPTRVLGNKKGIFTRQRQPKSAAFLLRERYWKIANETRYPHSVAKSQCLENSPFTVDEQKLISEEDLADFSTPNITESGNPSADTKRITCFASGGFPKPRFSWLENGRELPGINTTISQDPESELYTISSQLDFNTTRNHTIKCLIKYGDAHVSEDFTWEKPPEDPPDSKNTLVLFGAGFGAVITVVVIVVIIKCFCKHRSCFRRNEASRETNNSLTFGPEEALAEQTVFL
Protocol: Retroviral vector pLNCX-hβG-eB7 was constructed and infected to EJ human bladder carcinoma cells (EJ/hβG-eB7) to express functionally active human β-glucuronidase on the membrane. hβG-eB7 was imaged in nude mice (n=3) bearing established EJ and EJ/hβG-eB7 tumors (200-300 mm^3) in their left and right chest regions, respectively, by i.v. injecting 500 μg FDGlcU and performing imaging and histological analysis of fluorescent intensity and βG activity as described above.
FDGlcU was i.v. injected into mice bearing EJ (left) and EJ/hβG-eB7 (right) tumors and whole-body images were acquired at the indicated times (3 mins, 30 mins, 60 mins). […] Live EJ cells (open curve) and EJ/hβG-eB7 cells (solid curve) were immunofluorescence stained for the myc epitope (left panel) or incubated with FDGlcU (right panel), respectively, and analyzed on a flow cytometer.

[3] = target: T1, mβG-eB7; assay: In vivo whole-body optical imaging of FDGlcU activation in mice bearing CT26 and CT26/mβG-eB7 tumors; conditions: Balb/c mice, 500 μg i.v.
Protocol: To investigate whether expression sites of membrane bound β-glucuronidase reporter system could be non-invasively detected (in vivo imaging), Balb/c mice bearing established CT26 and CT26/mβG-eB7 colon tumors in their left and right chest regions, respectively, were intravenously injected with about 500 μg of non-fluorescent FDGlcU. Whole-body images of the mice were acquired by performing 3 minute scans.
As an example, Balb/c mice (n=3) bearing established CT26 and CT26/mβG tumors (200-300 mm^3) in their left and right chest regions, respectively, were i.v. injected with 500 μg FDGlcU. Whole-body images of pentobarbital-anesthetized mice were obtained by performing 3 minutes scans over 90 minutes on a Kodak IS2000MM optical imaging system. The fluorescence intensities were analyzed with KODAK 1D Image Analysis Software.
The distribution of activated FDGlcU in CT26 (open circle) and CT26/mβG-eB7 (black dot) tumors (n=4) was determined by measuring fluorescence intensities in 3 minute scans performed over 90 minutes.

[4] = target: T1, mβG-eB7; assay: Biodistribution by optical imaging of whole-body frozen sections after i.v. FDGlcU or fluorescein; type: in vivo; conditions: 30 minutes after i.v. injection of 500 μg
Protocol: In vivo biodistribution of fluorescein was measured around 30 minutes after i.v. injection of the substrate, FDGlcU, (left panel) or fluorescein (right panel). The biodistribution of activated FDGlcU was examined by killing tumor-bearing mice 30 minutes after they received an injection of FDGlcU or fluorescein and then performing optical imaging of whole-body frozen sections. The intensity of the fluorescence of whole-body sections was measured with the IVIS® Imaging System 50 (Xenogen, Alameda, Calif.).
For example, mice (n=3) were i.v. injected with 500 μg FDGlcU or fluorescein 30 min before the mice were dipped into isopentane at liquid nitrogen temperatures and embedded on a cryostat holder (7×5 cm) in 4% carboxylmethylcellulose. The fluorescence signals of 30 μm whole-body sections were measured on a IVIS® Imaging System 50 (Xenogen, Alameda, Calif.) and the regions of interest were analyzed with Living Image® software (Xenogen).
FIG. 9 is a graph showing a comparison of the results of the example of FIG. 8 in different organ regions of interest according to one embodiment of the invention. After i.v. injection of FDGlcU or fluorescein, mice were analyzed with Living Image® software. […] The fluorescent intensity in CT26/mβG-eB7 tumors was about 240 times greater than in the CT26 tumors (FIG. 9). Fluorescent signals were also observed in the intestinal tract.

[5] = target: T1, mβG-eB7; assay: FDGlcU staining of HCC36 cells infected with Ad5/mβG-eB7, flow cytometer; type: cell-based
Text: HCC36 cells (open curve) and HCC36 cells infected with Ad5/mβG-eB7 (solid curve) were stained for the presence of the […] epitope in mβG-eB7 (left panel) or directly stained with FDGlcU (right panel) and then analyzed on a flow cytometer.
As shown by staining of membrane β-glucuronidase with anti-myc antibody in the left panel of FIG. 10, HCC36 cells were successfully infected with Ad5/mβG-eB7.

[6] = target: T1, mβG-eB7; assay: FDGlcU hydrolysis on live CT26 and CT26/mβG-eB7 cells, confocal microscopy; type: cell-based; conditions: 40 μM FDGlcU, pH 6.5, 37° C., 40 minutes
Protocol: For example, functional expression of membrane bound β-glucuronidase on a host cell can be measured by incubating the host cells (with and without the recombinant reporter gene systems, such as CT26 or CT26/mβG-eB7 cells) with 40 μM FDGlcU (Invitrogen, Calsbad, Calif.) in phosphate-buffered saline containing 0.1% BSA, pH 6.5 at 37° C. for 40 minutes and then staining the cells with anti-myc antibody (5 μg/ml, clone Myc 1-9EIO.2, American Type Culture Collection, Manassas, Va.) at about 4° C. for about 1 hour. The cells can be washed with cold phosphate-buffered saline and incubated with rhodamine-conjugated rabbit anti-mouse IgG antibody (5 μg/ml) at about 4° C. for about 1 hour. The cells are then washed with cold phosphate-buffered saline, mounted with fluorescence mounting medium (anti fade; DakoCytomation, Carpinteria, Calif.), and viewed under a digital fluorescence confocal microscope.

[7] = target: Recombinant E. coli β-glucuronidase (Escherichia coli, UniProt P05804); assay: Trapping of FITC-trap-glu on coated β-glucuronidase detected by anti-FITC antibody ELISA; type: biochemical; conditions: β-glucuronidase and BSA about 2 μg/well, serial dilutions, about 60 mins
Protocol: Recombinant E. coli β-glucuronidase (about 2 μg/well) and bovine serum albumin (about 2 μg/well) were coated in 96 well microtiter plates and blocked with about 2% of skin milk. Serial dilutions of the FITC-trap-glu probe in phosphate-buffered saline were added to the wells of the microtiter plates at room temperature for about 60 mins. The plates were washed 3 times with phosphate-buffered saline. The plates were stained with about 1 μg/mL of an anti-FITC antibody followed by about 1 μg/mL of horse-radish peroxidase-conjugated anti-mouse IgG. The plates were washed and bound peroxidase activity was measured by adding about 100 μL/well of ABTS solution (about 0.4 mg/mL of 2,2′ azino-di(3-ethylbenzthiazoline-6-sulfonic acid), about 0.003% of H2O2, about 100 mM of phosphate-citrate, pH 4.0) for about 30 min at room temperature.

[8] = target: T1, mβG-eB7; assay: ^124I-trap-glu conversion by CT26/mβG-eB7 or CT26 cells, bound radioactivity in gamma-counter; type: cell-based; conditions: graded concentrations, room temperature, about 40 mins
Protocol: Graded concentrations of the ^124I-trap-glu probe/substrate were incubated with CT26/mβG-eB7 (▪) or CT26 cells (□) in phosphate-buffer saline at room temperature for about 40 mins. The plates containing the transfected cells were washed and bound radioactivity was measured in a gamma-counter.

[9] = target: T1, mβG-eB7; assay: ^124I-ph-trap-glu conversion by CT26/mβG-eB7 or CT26 cells, cell radioactivity in gamma-counter; type: cell-based; conditions: graded concentrations, room temperature, about 40 mins
Protocol: Graded concentrations of the ^124I-trap-glu probe was added to 96-well microtiter plates coated with CT26/mβG-eB7 (▪) or CT26 cells (□) in phosphate-buffered saline at room temperature for about 40 mins. The plates were then washed to remove non-precipitated probes and the cells were collected by treatment with trypsin. The radioactivity of cells was then measured in a gamma-counter.

Sequence of Recombinant E. coli β-glucuronidase (P05804 whole entry): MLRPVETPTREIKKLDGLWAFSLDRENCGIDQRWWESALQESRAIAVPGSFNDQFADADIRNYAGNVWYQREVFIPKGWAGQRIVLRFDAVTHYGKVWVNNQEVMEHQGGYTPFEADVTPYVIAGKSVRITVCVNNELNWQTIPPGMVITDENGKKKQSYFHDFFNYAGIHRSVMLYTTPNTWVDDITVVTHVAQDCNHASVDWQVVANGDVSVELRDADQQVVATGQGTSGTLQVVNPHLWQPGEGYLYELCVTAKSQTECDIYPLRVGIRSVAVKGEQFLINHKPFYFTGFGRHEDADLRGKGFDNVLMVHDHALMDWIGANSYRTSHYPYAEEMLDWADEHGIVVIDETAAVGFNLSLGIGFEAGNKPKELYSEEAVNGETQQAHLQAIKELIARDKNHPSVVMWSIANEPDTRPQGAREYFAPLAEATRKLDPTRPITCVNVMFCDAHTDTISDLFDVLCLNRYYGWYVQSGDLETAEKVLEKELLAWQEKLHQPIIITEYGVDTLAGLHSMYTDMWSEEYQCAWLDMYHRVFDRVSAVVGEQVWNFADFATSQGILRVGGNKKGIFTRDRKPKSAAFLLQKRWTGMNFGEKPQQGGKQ

## O=C1OC2(c3ccc(O[C@@H]4O[C@H](C(=O)O)[C@@H](O)[C@H](O)[C@H]4O)cc3Oc3cc(O[C@@H]4O[C@H](C(=O)O)[C@@H](O)[C@H](O)[C@H]4O)ccc32)c2ccccc21 [FDGlcU, fluorescein di-β-D-glucuronide]
[1]
  fluorescence of Ad5/mβG-eB7 injected HCC36 tumor vs non-infected HCC36 tumors: obvious fluorescence
[2]
  conversion to fluorescent reporter in EJ/hβG-eB7 vs control EJ tumors: preferentially converted to a fluorescent reporter in EJ/hβG-eB7 tumors but not in control tumors
[3]; 3 minute scans over 90 minutes
  time of highest fluorescence after FDGlcU injection: 30 min
[3]; whole-body images at 3, 30, 60 mins
  conversion of FDGlcU to fluorescein in CT26/mβG tumors vs control CT26 tumors: selectively converted to fluorescein
[4]; whole-body sections
  fluorescent intensity in CT26/mβG-eB7 tumors relative to CT26 tumors: about 240 times
[5]
  activation of FDGlcU at Ad5/mβG-eB7 infected HCC36 cells: activated to fluorescent product at the infected cells
[6]
  conversion of FDGlcU to fluorescein on cells: only CT26/mβG-e-B7 cells

## O=C1OC2(c3ccc(O)cc3Oc3cc(O)ccc32)c2ccccc21 [fluorescein]
[4]; tumor-bearing mice
  in vivo biodistribution: largely accumulated in the intestinal tract and kidneys

## N-fluorescein-isothiocyanato (3-difluoromethylphenyl)-β-D-glucopyronuronate [FITC-trap-glu]
[7]
  trapping by β-glucuronidase detected by anti-FITC antibody: specific trapping

## ^124I-difluoromethylphenol glucuronide [^124I-trap-glu]
[8]
  conversion of probe to ^124I-trap product in CT26/mβG-eB7 vs CT26 cells: specifically converts

## ^124I-phenolphthalin glucuronide [^124I-ph-trap-glu]
[9]
  conversion of probe to ^124I-trap reporter product in CT26/mβG-eB7 vs CT26 cells: specifically converts
